Measurements from patent US6046231A, “Use of 4'-bromoflavone in a cancer chemopreventative composition and method” (The Board of Trustees of the University of Illinois, priority 1999, dated 2000).
Entries after “also recorded” stand apart in the source; their conditions may differ. Where two headings read alike, the source gives them in different places.

What was measured:
[1] = tested on: quinone reductase (QR), Hepa 1c1c7 cells; test: Quinone reductase (QR) induction in Hepa 1c1c7 cells; format: cell-based, murine
From the text: This test was used because the specific activity of QR rises concomitantly with other phase II enzymes in many animal tissues in response to various chemopreventive agents. The study included natural and synthetic B-ring substituted flavones, as well as biosynthetic precursor chalcones and flavanones.
Determination of Quinone Reductase Activity in Cell Cultures. To determine the potency of inducers, Hepa 1c1c7 murine hepatoma cells as described in the Gerhauser publication were placed in 96-well plates at a density of 1×10^4 cells/ml in 200 μl of medium. After a preincubation period of 24 hr, the media were decanted and 190 μl fresh media were added to each well. Ten (10) μl test agents dissolved in 10% DMSO (final concentration of DMSO is 0.5%) with a serial 2-fold dilutions were introduced to each well, and the plates were incubated for an additional 48 hours. Specific QR activity was determined by measuring the NADPH-dependent menadiol-mediated reduction of 3-(4, 5-dimethylthiazo-2-yl)-2,5-diphenyltetrazolium bromide to blue formazan formed per mg protein per minute. Protein was determined in an identical set of test plates by staining with crystal violet. Hepa 1c1c7 cells retain many characteristics of normal issues, particularly the capacity for carcinogen activation and metabolism. They are amenable to precise control of environmental, nutritional, and hormonal factors. […] Induction of QR activity was calculated by comparing the QR specific activity of agent-treated cells with that of solvent-treated cells, and a plot of ratio was generated. CD represents the concentration required to double QR induction. Chemopreventive index (CI) is an indexing value generated by comparing CD with IC50 (concentration for 50% inhibition of cell viability) values.
Induction of Quinone Reductase in Hepa 1c1c7 Cells. […] Modification of the B-ring of chalcones, flavanones, and flavones was hypothesized to induce torsion of the B-ring, and, therefor, simulate out-of-plane distortions characteristic of polycyclic aromatic hydrocarbons, such as DMBA. Induction of QR activity was calculated by comparing the QR specific activity of agent-treated cells with the QR specific activity of solvent-treated cells, and a plot of ratios was generated. CD represents the concentration required for a double fold of induction. CI (Chemopreventive Index) is a value obtained by comparing CD with IC50 (concentration for 50% inhibition of cell viability in […]).

Hepa 1c1c7 cells [2] = test: Hepa 1c1c7 cell viability (cytotoxicity); format: cell-based, murine; details: Mus musculus, Hepa-1c1c7, read-out: IC50, concentration for 50% inhibition of cell viability
GST Ya (α class) = test: Western blot of GST Ya (α-type) expression in H4IIE cells; format: cell-based, rat
Procedure: (§1) Western Blot Analysis Glutathione S-transferase Expression. Cultured H4IIE rat hepatoma cells were treated with test agent with various concentrations or various time points. […] Cells were harvested using SDS lysis buffer (20 mM Tris-Cl, pH 6.8, containing 0.4% SDS (w/v), 4% glycerol, 0.24 M β-mercaptoethanol, and 0.5% bromphenol) and the lysates were boiled for 5 minutes, then stored at -20° C. An aliquot of lysate was used for protein determination using a bicichoninic acid protein assay kit with BSA as a standard. Equivalent amounts of protein were electrophoresed by SDS-PAGE on precast 12.5% Tris-glycine acrylamide gels (Novex, San Diego, Calif.), then transferred to polyvinylidene difluoride (PDVF) membranes. Nonspecific binding sites were blocked with 10% nonfat dry milk and blotting was performed with goat polyclonal antirat GSTYa (α class) IgG or antirat, GSTYb (μ class) IgG and analyzed by alkaline phosphatase-conjugated antigoat IgG secondary antibody (Oxford Biomed Research, Inc.) and quantified using an AP 20 Alkaline Phosphatase Kit detection system (Oxford Biomed Research, Inc.).
(§2) Induction of Expression of Glutathione S-transferase Ya (α-type) and Yb (μ-type) in Cell Cultures. […] To date, the superfamily of mammalian cytosolic GST isozymes has been defined genetically to consist of four classes; α, μ, π, and θ, which differ in tissue-specificexpression and distribution, as well as substrate specificity. […] Cultured H4IIE cells were treated either with 10 μM of 4'-BF (FIG. 7B) or sulforaphane for 0, 2, 4, 8, 16, 24, and 48 hours for a time-dependent study, or with 0.16, 0.8, 4, 10, 20, and 50 μM of 4'-BF (FIG. 7A) or sulforaphane for 24 hr for a dose-dependent study (FIG. 7A). The expressions of two major detoxification isoforms of GSTs (GST Ya: α-type, and GST Yb: μ-type) mediated by 4'-BF or sulforaphane were investigated in H4EII rat hepatoma cells using Western blotting technique.

GST Yb (μ class) = test: Western blot of GST Yb (μ-type) expression in H4IIE cells; format: cell-based, rat
Procedure: as §1, §2

H4IIE rat hepatoma cells = test: Toxicity in H4IIE rat hepatoma cells; format: cell-based
[3] = tested on: pDTD-1097CAT construct (QR gene 5'-region), HepG2 cells; test: CAT expression in HepG2 cells transfected with pDTD-1097CAT; format: cell-based, human cells; rat QR gene; details: 10 μM, 48 h; p<0.0001
Procedure: Transcient Transfection Gene Expression Assay. Cultured HepG2 human hepatoma cells were transfected with three plasmid constructs (PDTD-1697CAT, XRE-CAT, ARE-CAT) containing various portions of the 5'-region of the QR gene fused to the CAT gene using the calcium phosphate precipitation method (J. Sambrook et al., Molecular cloning: A Laboratory Handbook, Ed. Chris Nolan, CHS Laboratory Press, 1989). After 4 hours of transfection, the cells were treated with 10% glycerol for 3 minutes and rinsed with PBS and switched to MEM, containing 100 units/ml penicillin G sodium, 100 units/ml streptomycin sulfate, nonessential amino acids, and 1 mM sodium pyruvate (Life Technologies Inc.) supplemented with 10% fetal bovine serum for 12-16 hours recovery. Then, test agents were added to the cells. After 48 hours of treatment with the test agents, cells were harvested with lysis buffer (Boehringer Mannheim Biochemical) and CAT protein expressions were assessed using a CAT ELISA kit (Boehringer Mannheim Biochemical). […] All data were expressed as mean +/- SD. […]
(§3) In particular, FIG. 1 illustrates quantitation of CAT expression in HepG2 cells transfected with QR-CAT constructs. […] CAT expression (ng CAT/mg protein) was determined using a CAT ELISA, and the ratio of CAT expression between treated and control cells was calculated (ratio=treated/control).

[4] = tested on: QR ARE-CAT construct, HepG2 cells; test: CAT expression in HepG2 cells transfected with QR ARE-CAT; format: cell-based, human cells; rat QR gene; details: 10 μM, 48 h; p<0.0001
Procedure: (§4) Transcient Transfection Gene Expression Assay. Cultured HepG2 human hepatoma cells were transfected with three plasmid constructs (PDTD-1697CAT, XRE-CAT, ARE-CAT) containing various portions of the 5'-region of the QR gene fused to the CAT gene using the calcium phosphate precipitation method (J. Sambrook et al., Molecular cloning: A Laboratory Handbook, Ed. Chris Nolan, CHS Laboratory Press, 1989). After 4 hours of transfection, the cells were treated with 10% glycerol for 3 minutes and rinsed with PBS and switched to MEM, containing 100 units/ml penicillin G sodium, 100 units/ml streptomycin sulfate, nonessential amino acids, and 1 mM sodium pyruvate (Life Technologies Inc.) supplemented with 10% fetal bovine serum for 12-16 hours recovery. Then, test agents were added to the cells. After 48 hours of treatment with the test agents, cells were harvested with lysis buffer (Boehringer Mannheim Biochemical) and CAT protein expressions were assessed using a CAT ELISA kit (Boehringer Mannheim Biochemical). CAT enzyme expression was normalized for the protein content of each sample. All data were expressed as mean +/- SD. Means were compared using Student's t test with n=4.
(§5) This was further investigated in transient transfection experiments wherein human hepatoma cells were transfected with DNA constructs containing various portions of the 5' upstream promoter region of the QR gene linked to the CAT reporter gene by using the calcium phosphate precipitation method. Construct pDTD-1097CAT contains elements of the rat QR gene connected to the CAT construct gene. […]
as §3

[5] = tested on: QR XRE-CAT construct, HepG2 cells; test: CAT expression in HepG2 cells transfected with QR XRE-CAT; format: cell-based, human cells; rat QR gene; details: 10 μM, 48 h
Procedure: as §4, §5, §3

[6] = tested on: quinone reductase (QR), Hepa 1c1c7 cells; details: reported comparator value; cited from earlier work
Hepa 1c1c7 cells [7] = details: comparator value; read-out: IC50 (toxicity), comparison value; cited from earlier work

| Compound | CI, chemoprevention index (IC50/CD) ([1]; IC50/CD, 2880 min) | EC (2-fold) ([1]; Mus musculus, Hepa-1c1c7, 48 h, Hepa 1c1c7 cells, 48 h, read-out: CD, concentration to double the specific activity of QR) [µM] | IC50 (Hepa 1c1c7 cells [2]) [µM] | maximum induction time, GST Ya (GST Ya (α class); 10 μM, 0-48 h) [h] | maximum induction concentration, GST Ya (GST Ya (α class); 0.16-50 μM, 24 h) [µM] | GST Ya (α) induction (GST Ya (α class); H4IIE cells) | maximum induction time, GST Yb (GST Yb (μ class); 10 μM, 0-48 h) [h] | maximum induction concentration, GST Yb (GST Yb (μ class); 0.16-50 μM, 24 h) [µM] | GST Yb (μ) induction (GST Yb (μ class); H4IIE cells) | toxicity in H4IIE cells (H4IIE rat hepatoma cells) | CAT expression, pDTD-1097CAT [3] | CAT expression, QR ARE-CAT [4] | CAT expression, QR XRE-CAT [5] | CD, comparison value [6] [µM] | IC50 (Hepa 1c1c7 cells [7]) [µM] |
| --- | --- | --- | --- | --- | --- | --- | --- | --- | --- | --- | --- | --- | --- | --- | --- |
| C[S+]([O-])CCCCN=C=S (stereo not drawn) [Sulforaphane, sulforaphane, reference compound] | 26 | 0.43 | 11 | 16 to 24 | 4 to 10 | Time, dose-dependent induction | 16 to 24 | 4 to 10 | Time, dose-dependent induction | a declined induction for sulforaphane was observed at a concentration higher than 10 μM due to the toxic effects | significantly (p<0.0001) induced | significantly (p<0.0001) induced; also recorded: selectively interacted with the ARE | not observed | 0.23 |  |
| O=c1cc(-c2ccccc2)oc2ccc3ccccc3c12 [β-naphthoflavone] |  |  |  |  |  |  |  |  |  |  |  | significantly (P<0.0001, students t test with n=4) induced | significantly (P<0.0001, students t test with n=4) induced | 0.02 to 0.04 | 8 |
